Source: US20240245670A1, “DOSING REGIMEN AND PHARMACEUTICAL COMBINATION COMPRISING 3-(1-OXOISOINDOLIN-2-YL)PIPERIDINE-2,6-DIONE DERIVATIVES” (Novartis AG, priority 2018, published 2024)

How the values were obtained:
[1] = system: IKZF2 expression in FOXP3+ T cells from PBMCs; experiment: PD after single oral dose in cynomolgus monkey: IKZF2 expression by flow cytometry; assay type: in vivo
Protocol: FIG. 4 is a graph showing the PK/PD relationship in the cynomolgus monkey after a single oral of 0.01, 0.1 or 1 mg/kg of Compound I-57.
FIG. 5. is a graph showing plasma concentration in the cynomolgus monkey of Compound I-57 and IKZF2 expression (as determined by flow cytometry) in FOXP3+ T cells from PBMCs after a single oral of 0.01, 0.1 or 1 mg/kg of Compound I-57.
The PK/PD relationship of I-57 was examined in cynomolgus monkeys after a single oral dose of 0.01, 0.1 or 1 mg/kg. I-57 plasma concentration and IKZF2 expression (as determined by flow cytometry) in FOXP3+ T cells from PBMCs were determined (FIG. 4 and FIG. 5).
Decreased (percentage change) IKZF2 positive FOXP3-cells, as determined by flow cytometry, were detectable at 4h post dose in the 1 mg/kg and 0.1 mg/kg groups, reaching maximum at 12-24 hrs post-dose and maintaining this maximum for 12-24 hrs.

monkey IKZF2 = experiment: IKZF2 degradation, species relevance (monkey)
Protocol: The starting dose of I-57 selected for this study is supported by 4-week GLP toxicology studies performed in cynomolgus monkeys. […] GLP toxicity studies identified 30 mg/kg as the HNSTD in monkey and supported a starting dose up to 100 mg QD in human (BSA scaled HED and using a safety factor of 6). The selected dose of 20 mg is anticipated to result in a significant but sub-maximal IKZF2 degradation in human PBMCs and TILs (50-90%), based on PK/PD modeling of I-57 exposure and IKZF2 degradation in cynomolgus PBMCs. More IKZF2 degradation may be required to change downstream biology. Therefore, 20 mg is considered safe. Escalation from this starting dose will facilitate the determination of the minimal required dose which provides optimal IKZF2 degradation to impact downstream biological activity.

IKZF2 = IKZF2 (Homo sapiens, UniProt Q96SW2+Q9UKS7); experiment: IKZF2 protein in total tumor-infiltrating lymphocytes by immunohistochemistry, hPBMC AdT model (FIG. 8); assay type: in vivo; parameters: endogenous in cells; host or cells: primary human PBMCs / primary Treg cells; settings: 24 h post the 14th daily dose
Chain of IKZF2 (Q9UKS7 whole entry): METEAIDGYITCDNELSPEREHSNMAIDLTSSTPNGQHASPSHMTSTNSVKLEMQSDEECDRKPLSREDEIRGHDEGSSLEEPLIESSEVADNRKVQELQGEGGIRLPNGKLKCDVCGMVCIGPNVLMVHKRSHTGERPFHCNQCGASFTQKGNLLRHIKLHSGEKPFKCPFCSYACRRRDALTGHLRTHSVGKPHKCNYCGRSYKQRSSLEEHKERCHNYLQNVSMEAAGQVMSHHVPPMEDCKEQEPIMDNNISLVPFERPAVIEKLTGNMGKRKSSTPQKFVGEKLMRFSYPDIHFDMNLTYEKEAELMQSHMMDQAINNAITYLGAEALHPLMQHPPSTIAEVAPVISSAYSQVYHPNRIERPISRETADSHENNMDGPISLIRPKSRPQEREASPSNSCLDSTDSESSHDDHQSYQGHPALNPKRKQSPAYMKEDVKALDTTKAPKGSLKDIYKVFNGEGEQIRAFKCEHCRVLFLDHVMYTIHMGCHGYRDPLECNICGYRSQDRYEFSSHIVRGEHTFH
Chain of IKZF2 (Q96SW2 whole entry): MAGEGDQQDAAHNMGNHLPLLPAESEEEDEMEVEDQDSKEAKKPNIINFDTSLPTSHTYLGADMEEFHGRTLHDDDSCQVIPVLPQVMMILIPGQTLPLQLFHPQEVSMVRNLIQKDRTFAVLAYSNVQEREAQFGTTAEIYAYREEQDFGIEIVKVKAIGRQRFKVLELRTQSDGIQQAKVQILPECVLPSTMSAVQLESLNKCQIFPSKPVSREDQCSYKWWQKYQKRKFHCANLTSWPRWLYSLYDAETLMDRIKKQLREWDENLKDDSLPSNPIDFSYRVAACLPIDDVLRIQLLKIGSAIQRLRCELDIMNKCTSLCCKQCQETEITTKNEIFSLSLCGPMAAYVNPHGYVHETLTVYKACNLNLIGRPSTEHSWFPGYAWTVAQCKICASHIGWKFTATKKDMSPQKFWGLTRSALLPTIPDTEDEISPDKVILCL
Chain of IKZF2 (Q16531 whole entry partner): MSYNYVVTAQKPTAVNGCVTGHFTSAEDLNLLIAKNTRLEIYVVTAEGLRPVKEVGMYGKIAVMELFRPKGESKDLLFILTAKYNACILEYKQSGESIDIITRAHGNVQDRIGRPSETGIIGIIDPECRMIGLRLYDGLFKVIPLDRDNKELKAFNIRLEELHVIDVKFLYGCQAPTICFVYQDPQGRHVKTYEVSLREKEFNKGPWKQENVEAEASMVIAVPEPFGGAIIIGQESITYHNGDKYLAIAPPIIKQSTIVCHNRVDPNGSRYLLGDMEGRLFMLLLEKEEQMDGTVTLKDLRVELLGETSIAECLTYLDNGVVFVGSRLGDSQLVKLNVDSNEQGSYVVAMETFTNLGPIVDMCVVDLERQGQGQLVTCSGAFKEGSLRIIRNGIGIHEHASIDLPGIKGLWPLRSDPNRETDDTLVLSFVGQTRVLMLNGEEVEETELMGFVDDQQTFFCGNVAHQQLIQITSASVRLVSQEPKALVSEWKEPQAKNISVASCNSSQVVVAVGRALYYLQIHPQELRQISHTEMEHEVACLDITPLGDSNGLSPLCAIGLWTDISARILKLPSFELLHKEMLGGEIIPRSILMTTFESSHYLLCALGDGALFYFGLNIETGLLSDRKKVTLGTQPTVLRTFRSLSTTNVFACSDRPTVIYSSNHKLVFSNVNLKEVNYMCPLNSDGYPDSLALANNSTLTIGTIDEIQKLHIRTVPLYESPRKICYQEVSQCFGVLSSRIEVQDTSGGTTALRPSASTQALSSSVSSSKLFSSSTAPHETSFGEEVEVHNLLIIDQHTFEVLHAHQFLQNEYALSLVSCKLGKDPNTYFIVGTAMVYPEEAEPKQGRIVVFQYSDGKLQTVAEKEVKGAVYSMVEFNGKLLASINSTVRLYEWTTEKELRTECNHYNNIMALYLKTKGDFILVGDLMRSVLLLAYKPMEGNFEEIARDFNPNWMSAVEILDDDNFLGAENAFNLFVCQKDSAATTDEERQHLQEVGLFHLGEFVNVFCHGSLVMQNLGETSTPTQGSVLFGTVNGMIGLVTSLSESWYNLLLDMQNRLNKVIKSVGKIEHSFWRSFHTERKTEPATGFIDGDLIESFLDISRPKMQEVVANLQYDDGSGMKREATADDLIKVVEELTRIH
Protocol: FIG. 8A is a bar graph showing the change in the IKZF2 protein levels in total tumor-infiltrating lymphocytes by immunohistochemistry (IHC) at 24 h post the 14th daily dose of 1, 3 or 30 mg/kg Compound I-57.
IKZF2 protein levels in total tumor-infiltrating lymphocytes were also assessed by immunohistochemistry (IHC) at 24 h post the 14th dose of 1, 3 or 30 mg/kg I-57. […] Overall, IKZF2 degradation assessed by IHC was generally consistent with our findings in Tregs by flow cytometry, though dose dependency was less apparent. Together, the data support the finding of profound I-57-mediated IKZF2 degradation in tumor-infiltrating lymphocytes (FIG. 8A and FIG. 8B).

[2] = In vivo non-clinical PK profile, i.v. and p.o., all species tested (mouse, rat, dog, cynomolgus monkey)
Protocol: (§1) The in vivo non-clinical PK profile of I-57 was investigated in mouse, rat, dog and cynomolgus monkey using I-57 free base. […] After p.o. administration, the absorption of I-57 was rapid with peak blood concentration (Tmax) occurring between 1 and 4 hours. […] In high dose PK and toxicology studies with I-57 the exposures in mouse, rat and monkey increased with dose.

human recombinant CYPs = experiment: Assessment of enzymes involved in oxidative metabolism using human recombinant CYPs in vitro; assay type: in vitro ADME; settings: preliminary assessment
Protocol: In vivo in the dog, very minor amounts of the N-dealkylation product and products derived from hydrolysis of the glutarimide moiety were detected in plasma. While the contribution of CYP-mediated oxidative metabolism to systemic clearance is unknown, a preliminary assessment of the enzymes involved was conducted using human recombinant CYPs in vitro.

[3] = system: isolated primary human T cells; experiment: In vitro T cell dysfunction/exhaustion assay by sequential TCR stimulation (FIG. 2D); assay type: cell-based; settings: Teff cells; 2.5 nM, 25 nM and 2.5 μM
From the text: FIG. 2C is a bar graph showing the suppressive potency of Treg cells expanded in the presence of Compound I-57.
Although the specific transcriptional targets of IKZF2 remain to be defined, IKZF2 binds to and represses transcription from the IL-2 promoter region (Baine 2013). […] Finally, an in vitro assay recapitulating hallmarks of T cell dysfunction/exhaustion, by sequential TCR stimulation of isolated primary human T cells, was used to test the hypothesis that […] would rescue the exhausted phenotype and enhance Teff cell activity. […] In addition to IKZF1, other known cereblon substrates including translation termination factor G1 to S phase transition 1 (GSPT1) are not degraded by I-57 (FIG. 1).

peripheral T cells = experiment: Proliferation of peripheral T cells (Ki67) in KLH/Squalene immunized cynomolgus monkeys (FIG. 9B); assay type: in vivo, cynomolgus monkey; settings: 3 mg/kg group
Protocol: FIG. 9B. is a graph showing proliferation of peripheral T cells (Mean+/−SEM, % of predose) upon treatment with 0.1 and 3 mg/kg of Compound I-57 in cynomolgus monkeys.
The PK/PD relationship of I-57 was further examined in cynomolgus monkeys after repeated daily oral doses of 0.1 and 3 mg/kg. In this study, a cohort of animals were initially immunized with an antigen-adjuvant mixture (KLH/Squalene). The experiment was designed to assess the effect of I-57 exposure, and the resulting IKZF2 degradation, on immune response during immunization to test the hypothesis that IKZF2 degradation would result in increased proliferation of stimulated T-cells. In the experiment, daily I-57 oral treatment was initiated 5 days after immunization. An immunization booster dose was administered on day 15. I-57 plasma concentration and IKZF2 expression (as determined by flow cytometry) in FOXP3+ T cells from PBMCs were determined (FIG. 9A and FIG. 9B).
In order to measure the impact of I-57 treatment on the immune response following immunization, serum anti-KLH IG levels were measured longitudinally, and levels of T cell activation were measured in PBMCs by flow cytometry. […] In contrast, the proportion of proliferative peripheral T cells (denoted by Ki67 staining) was increased in the highest dose group (3 mg/kg) in the recall response phase, compared to immunization alone.

[4] = Preclinical safety observations; assay type: in vivo
From the text: The inclusion/exclusion criteria, dose modification guidelines and safety assessments in this FIH trial account for both the disease indications and preclinical safety profile of I-57 and PDR001. Of note are the provisions put in place for the risk of autoimmune events for both PDR001 and potentially I-57.

[5] = In vivo non-clinical PK / high dose PK and toxicology exposure; settings: rat; between 3 mg/kg and 300 mg/kg
Protocol: as §1

O=C1CCC(N2Cc3cc(C4CCN(Cc5ccccc5)CC4)ccc3C2=O)C(=O)N1 (centres unmarked) [Compound I-57, 3-(5-(1-benzylpiperidin-4-yl)-1-oxoisoindolin-2-yl)piperidine-2,6-dione]
time at which decreased IKZF2 positive FOXP3 cells were detectable ([1]; post dose, 1 mg/kg and 0.1 mg/kg groups): 4 h | duration for which maximum decrease was maintained ([1]; single oral dose): 12 to 24 h | dose dependence of decrease in IKZF2 positive cells ([1]; single oral dose of 0.01, 0.1 or 1 mg/kg): dose dependent | degradation of monkey IKZF2 (monkey IKZF2): can degrade monkey | IKZF2 degradation in total tumor-infiltrating lymphocytes (IHC) (IKZF2; 30 mg/kg): approximately 85% | IKZF2 levels in total tumor-infiltrating lymphocytes (IHC) (IKZF2; 1, 3 and 30 mg/kg): Robust reduction in IKZF2 levels | terminal half-life (T1/2) ([2]; i.v. administration, all species tested): moderate | absorption ([2]; p.o. administration): rapid | enzyme primarily mediating oxidative metabolism (human recombinant CYPs): CYP3A4 | IFNγ production by IKZF2 positive cells [3]: concomitant increase | levels of Ki67 until the end of the study (peripheral T cells): remained elevated | preclinical observation (ECG) [4]: QTc prolongation | preclinical observation (urine) [4]: hematuria and proteinuria | increase in AUC with dose [5]: roughly dose proportional
